{
  "source": "patent US20030083484A1",
  "about": "“Antisense modulation of short heterodimer partner-1 expression” (priority 2001, published 2003)",
  "key": {"[1]": {"tested_on": "mouse short heterodimer partner-1 mRNA", "assay": "Inhibition of mouse short heterodimer partner-1 mRNA levels in primary hepatocytes, quantitative real-time PCR", "type": "cell-based", "parameters": "concentration or dose not given beside the values", "conditions": "averages from two experiments", "experimental": "(§1) Primary mouse hepatocytes were prepared from CD-1 mice purchased from Charles River Labs (Wilmington, Mass.) and were routinely cultured in Hepatoyte Attachment Media (Gibco) supplemented with 10% Fetal Bovine Serum (Gibco/Life Technologies, Gaithersburg, Md.), 250 nM dexamethasone (Sigma), and 10 nM bovine insulin (Sigma). Cells were seeded into 96-well plates (Falcon-Primaria #3872) at a density of 10000 cells/well for use in RT-PCR analysis.\n(§2) Cells were harvested 16-24 hours after oligonucleotide treatment.\n(§3) Vacuum was applied for 15 seconds. […] The elution step was repeated with an additional 60 μL water.\n(§4) Total RNA is quantified using RiboGreen™ RNA quantification reagent from Molecular Probes.\n(§5) Probes and primers to mouse short heterodimer partner-1 were designed to hybridize to a mouse short heterodimer partner-1 sequence, using published sequence information (GenBank accession number L75567, incorporated herein as SEQ ID NO: 10).\nAll cytidine residues are 5-methylcytidines. […] Data are averages from two experiments. If present, “N.D.” indicates “no data”."}, "[2]": {"tested_on": "mouse short heterodimer partner-1 mRNA", "assay": "Dose-response study: inhibition of mouse short heterodimer partner-1 mRNA levels in primary hepatocyte cells, quantitative real-time PCR", "type": "cell-based", "conditions": "averages from two experiments", "experimental": "as §1, §2, §3, §4, §5\nIn accordance with the present invention, a subset of the antisense oligonucleotides in Example 16 were further investigated in dose-response studies. Treatment doses were 50, 150 and 300 nM."}},
  "note": "Strand notation (5' to 3'): a small letter for the sugar, then the base; units joined by * are phosphorothioate-linked, units joined directly phosphodiester-linked; [ ] holds rarer units or linkages, { } end groups; capitals alone tell only the bases. e = 2'-O-(2-methoxyethyl) (MOE); [5mC] = 5-methylcytosine; d = 2'-deoxy (DNA)",
  "data": [
    {"substance": "148287 (antisense eG*eT*eT*e[5mC]*eT*dG*dT*dA*d[5mC]*dA*dA*dA*dG*dT*d[5mC]*eA*eG*eG*eA*eG) [compound 148287]", "values": [
      {"measurement": "% INHIB (inhibition of mouse short heterodimer partner-1 mRNA levels)", "setting": "[1]", "value": 74, "unit": "%"},
      {"measurement": "Percent Inhibition of mouse short heterodimer partner-1 mRNA levels", "setting": "[2]; 50 nM oligonucleotide", "value": 44, "unit": "%"},
      {"measurement": "Percent Inhibition of mouse short heterodimer partner-1 mRNA levels", "setting": "[2]; 150 nM oligonucleotide", "value": 71, "unit": "%"},
      {"measurement": "Percent Inhibition of mouse short heterodimer partner-1 mRNA levels", "setting": "[2]; 300 nM oligonucleotide", "value": 89, "unit": "%"}
    ]},
    {"substance": "148284 (antisense eG*eA*eG*eG*e[5mC]*dA*d[5mC]*d[5mC]*dA*dG*dA*d[5mC]*dT*d[5mC]*d[5mC]*eA*eT*eT*e[5mC]*e[5mC]) [compound 148284]", "values": [
      {"measurement": "% INHIB (inhibition of mouse short heterodimer partner-1 mRNA levels)", "setting": "[1]", "value": 77, "unit": "%"},
      {"measurement": "Percent Inhibition of mouse short heterodimer partner-1 mRNA levels", "setting": "[2]; 50 nM oligonucleotide", "value": 6, "unit": "%"},
      {"measurement": "Percent Inhibition of mouse short heterodimer partner-1 mRNA levels", "setting": "[2]; 150 nM oligonucleotide", "value": 55, "unit": "%"},
      {"measurement": "Percent Inhibition of mouse short heterodimer partner-1 mRNA levels", "setting": "[2]; 300 nM oligonucleotide", "value": 86, "unit": "%"}
    ]},
    {"substance": "148286 (antisense eA*eG*eT*e[5mC]*eA*dT*d[5mC]*dA*dA*dG*dG*dG*d[5mC]*dT*dT*eG*e[5mC]*eT*eG*eG) [compound 148286]", "values": [
      {"measurement": "% INHIB (inhibition of mouse short heterodimer partner-1 mRNA levels)", "setting": "[1]", "value": 71, "unit": "%"},
      {"measurement": "Percent Inhibition of mouse short heterodimer partner-1 mRNA levels", "setting": "[2]; 50 nM oligonucleotide", "value": 42, "unit": "%"},
      {"measurement": "Percent Inhibition of mouse short heterodimer partner-1 mRNA levels", "setting": "[2]; 150 nM oligonucleotide", "value": 58, "unit": "%"},
      {"measurement": "Percent Inhibition of mouse short heterodimer partner-1 mRNA levels", "setting": "[2]; 300 nM oligonucleotide", "value": 80, "unit": "%"}
    ]},
    {"substance": "ISIS 148285: 2′-MOE gapmer, phosphorothioate, ACAGTTAGTAGTGTACACTG, targets mouse short heterodimer partner-1 RNA (antisense eA*e[5mC]*eA*eG*eT*dT*dA*dG*dT*dA*dG*dT*dG*dT*dA*e[5mC]*eA*e[5mC]*eT*eG)", "values": [
      {"measurement": "% INHIB (inhibition of mouse short heterodimer partner-1 mRNA levels)", "setting": "[1]", "value": "at least 50%"}
    ]},
    {"substance": "148276 (antisense eA*eG*eA*eA*eA*dG*dA*d[5mC]*dT*d[5mC]*d[5mC]*dA*dG*dG*d[5mC]*eA*eG*e[5mC]*eG*e[5mC]) [compound 148276]", "values": [
      {"measurement": "% INHIB (inhibition of mouse short heterodimer partner-1 mRNA levels)", "setting": "[1]", "value": 56, "unit": "%"}
    ]},
    {"substance": "148262 (antisense eT*eG*eA*e[5mC]*eT*dG*dG*d[5mC]*d[5mC]*dG*dG*dA*dG*d[5mC]*dT*e[5mC]*eA*eT*eG*eG) [compound 148262]", "values": [
      {"measurement": "% INHIB (inhibition of mouse short heterodimer partner-1 mRNA levels)", "setting": "[1]", "value": 50, "unit": "%"}
    ]},
    {"substance": "ISIS 148277: 2′-MOE gapmer, phosphorothioate, TTCAGGTACGCATACTCCTT, targets mouse short heterodimer partner-1 RNA (antisense eT*eT*e[5mC]*eA*eG*dG*dT*dA*d[5mC]*dG*d[5mC]*dA*dT*dA*d[5mC]*eT*e[5mC]*e[5mC]*eT*eT)", "values": [
      {"measurement": "% INHIB (inhibition of mouse short heterodimer partner-1 mRNA levels)", "setting": "[1]", "value": "at least 50%"}
    ]},
    {"substance": "148269 (antisense eT*eA*eG*eG*eA*d[5mC]*dA*dT*d[5mC]*d[5mC]*dA*dA*dG*dG*d[5mC]*e[5mC]*eT*e[5mC]*e[5mC]*e[5mC]) [compound 148269]", "values": [
      {"measurement": "% INHIB (inhibition of mouse short heterodimer partner-1 mRNA levels)", "setting": "[1]", "value": 59, "unit": "%"}
    ]},
    {"substance": "148263 (antisense eA*e[5mC]*e[5mC]*eT*eG*d[5mC]*dA*dG*dA*dG*d[5mC]*d[5mC]*d[5mC]*dT*dG*eG*e[5mC]*eA*eT*eG) [compound 148263]", "values": [
      {"measurement": "% INHIB (inhibition of mouse short heterodimer partner-1 mRNA levels)", "setting": "[1]", "value": 0, "unit": "%"}
    ]},
    {"substance": "148270 (antisense e[5mC]*eA*e[5mC]*eT*e[5mC]*dT*dA*dG*d[5mC]*dA*dG*d[5mC]*d[5mC]*dG*d[5mC]*e[5mC]*eG*e[5mC]*eT*eG) [compound 148270]", "values": [
      {"measurement": "% INHIB (inhibition of mouse short heterodimer partner-1 mRNA levels)", "setting": "[1]", "value": 46, "unit": "%"}
    ]},
    {"substance": "148285 (antisense eA*e[5mC]*eA*eG*eT*dT*dA*dG*dT*dA*dG*dT*dG*dT*dA*e[5mC]*eA*e[5mC]*eT*eG) [compound 148285]", "values": [
      {"measurement": "% INHIB (inhibition of mouse short heterodimer partner-1 mRNA levels)", "setting": "[1]", "value": 50, "unit": "%"}
    ]},
    {"substance": "148268 (antisense eT*eG*e[5mC]*eA*eG*dG*dT*dG*d[5mC]*dG*dG*dT*dG*d[5mC]*dG*eG*eA*eG*e[5mC]*eA) [compound 148268]", "values": [
      {"measurement": "% INHIB (inhibition of mouse short heterodimer partner-1 mRNA levels)", "setting": "[1]", "value": 19, "unit": "%"}
    ]},
    {"substance": "148272 (antisense e[5mC]*eG*eG*eA*eG*d[5mC]*d[5mC]*dT*d[5mC]*dA*dG*d[5mC]*d[5mC]*dA*d[5mC]*e[5mC]*eT*e[5mC]*eG*eA) [compound 148272]", "values": [
      {"measurement": "% INHIB (inhibition of mouse short heterodimer partner-1 mRNA levels)", "setting": "[1]", "value": 69, "unit": "%"}
    ]},
    {"substance": "148271 (antisense eA*eA*e[5mC]*e[5mC]*e[5mC]*dA*dA*dG*d[5mC]*dA*dG*dG*dA*dA*dG*eA*eG*eA*eG*eG) [compound 148271]", "values": [
      {"measurement": "% INHIB (inhibition of mouse short heterodimer partner-1 mRNA levels)", "setting": "[1]", "value": 56, "unit": "%"}
    ]},
    {"substance": "148265 (antisense eA*eG*eG*eT*eG*d[5mC]*dA*dA*d[5mC]*dG*dG*dG*d[5mC]*d[5mC]*dT*eG*eG*eT*e[5mC]*e[5mC]) [compound 148265]", "values": [
      {"measurement": "% INHIB (inhibition of mouse short heterodimer partner-1 mRNA levels)", "setting": "[1]", "value": 41, "unit": "%"}
    ]},
    {"substance": "148264 (antisense eG*e[5mC]*eA*eT*eA*d[5mC]*dA*dG*dA*dA*dT*dA*dG*dT*d[5mC]*eG*eG*eA*e[5mC]*eG) [compound 148264]", "values": [
      {"measurement": "% INHIB (inhibition of mouse short heterodimer partner-1 mRNA levels)", "setting": "[1]", "value": 60, "unit": "%"}
    ]},
    {"substance": "148277 (antisense eT*eT*e[5mC]*eA*eG*dG*dT*dA*d[5mC]*dG*d[5mC]*dA*dT*dA*d[5mC]*eT*e[5mC]*e[5mC]*eT*eT) [compound 148277]", "values": [
      {"measurement": "% INHIB (inhibition of mouse short heterodimer partner-1 mRNA levels)", "setting": "[1]", "value": 62, "unit": "%"}
    ]},
    {"substance": "148279 (antisense eG*eG*eT*eA*eG*dA*dG*dG*d[5mC]*d[5mC]*dA*dT*dG*dA*dG*eG*eA*eG*eG*eA) [compound 148279]", "values": [
      {"measurement": "% INHIB (inhibition of mouse short heterodimer partner-1 mRNA levels)", "setting": "[1]", "value": 43, "unit": "%"}
    ]},
    {"substance": "148280 (antisense eG*eT*eG*e[5mC]*e[5mC]*dT*dG*dG*dA*dA*dT*dG*dT*dT*d[5mC]*eT*eT*eG*eA*eG) [compound 148280]", "values": [
      {"measurement": "% INHIB (inhibition of mouse short heterodimer partner-1 mRNA levels)", "setting": "[1]", "value": 33, "unit": "%"}
    ]},
    {"substance": "148281 (antisense eA*eG*eA*eA*eG*dA*dG*dA*dT*d[5mC]*dT*dA*d[5mC]*d[5mC]*dA*eG*eA*eA*eG*eG) [compound 148281]", "values": [
      {"measurement": "% INHIB (inhibition of mouse short heterodimer partner-1 mRNA levels)", "setting": "[1]", "value": 48, "unit": "%"}
    ]},
    {"substance": "148278 (antisense e[5mC]*eA*e[5mC]*eA*eG*dT*dG*d[5mC]*d[5mC]*d[5mC]*dA*dG*dT*dG*dA*eG*e[5mC]*e[5mC]*eT*e[5mC]) [compound 148278]", "values": [
      {"measurement": "% INHIB (inhibition of mouse short heterodimer partner-1 mRNA levels)", "setting": "[1]", "value": 36, "unit": "%"}
    ]},
    {"substance": "ISIS 148264: 2′-MOE gapmer, phosphorothioate, GCATACAGAATAGTCGGACG, targets mouse short heterodimer partner-1 RNA (antisense eG*e[5mC]*eA*eT*eA*d[5mC]*dA*dG*dA*dA*dT*dA*dG*dT*d[5mC]*eG*eG*eA*e[5mC]*eG)", "values": [
      {"measurement": "% INHIB (inhibition of mouse short heterodimer partner-1 mRNA levels)", "setting": "[1]", "value": "at least 50%"}
    ]},
    {"substance": "ISIS 148276: 2′-MOE gapmer, phosphorothioate, AGAAAGACTCCAGGCAGCGC, targets mouse short heterodimer partner-1 RNA (antisense eA*eG*eA*eA*eA*dG*dA*d[5mC]*dT*d[5mC]*d[5mC]*dA*dG*dG*d[5mC]*eA*eG*e[5mC]*eG*e[5mC])", "values": [
      {"measurement": "% INHIB (inhibition of mouse short heterodimer partner-1 mRNA levels)", "setting": "[1]", "value": "at least 50%"}
    ]},
    {"substance": "148267 (antisense e[5mC]*eA*e[5mC]*eA*eG*dA*d[5mC]*dG*d[5mC]*dA*d[5mC]*dA*dG*dG*d[5mC]*e[5mC]*eG*e[5mC]*eT*eG) [compound 148267]", "values": [
      {"measurement": "% INHIB (inhibition of mouse short heterodimer partner-1 mRNA levels)", "setting": "[1]", "value": 28, "unit": "%"}
    ]}
  ]
}
